Results as given in patent US10093699B2, “Peptides with antimicrobial, anticancer and/or wound-healing promoting activities, pharmaceutical compositions containing the same, and use of the peptides with antimicrobial, anticancer and/or wound-healing promoting activities” (priority 2015, dated 2018).
≈ marks a conversion by molar mass, not a printed value. Where a SMILES comes first, the peptide text is derived from it. [ ]: non-standard residue; d: D form. 2Nal = N[C@@H](Cc1ccc2ccccc2c1)C(=O)O

What was measured:
Type in all cases: cell-based
[1] = test system: Staphylococcus aureus subsp strain (ATCC 25923, methicillin-resistant); experiment: microbe, parasite or virus in culture
Protocol: (§1) Escherichia coli strain (ATCC 25922), Staphylococcus aureus subsp strain (ATCC 25923, methicillin-resistant), and Pseudomonas aeruginosa Migula strain (ATCC 27853, ampicillin-resistant) were used to test the antibacterial activity of the peptides. Bacteria were cultured in sterilized Mueller-Hinton (MH) culturing medium at 200 rpm and 37° C. for 8 hours.
(§2) After 8 hours culture, concentration of the inoculums were determined by measuring absorbance of optical density at 600 nm (OD 600=1, equal to approximately 10^8 CFU/mL) with UV/Visible spectrophotometer.
(§3) The antibacterial activities were determined by the standard broth microdilution method of National Committee for Clinical Laboratory Standards with the LYM broth. The LYM broth contains 5.4 mM KCl, 5.6 mM Na2HPO4, 0.5 mM MgSO4, and 1.0 mM sodium citrate. In addition, 0.4 mg of ZnCl2, 2.0 mg of FeCl3. 6H2O, 0.1 mg of CuSO4. 5H2O, 0.1 mg of MnSO4.H2O, 0.1 mg of Na2B4O7.10H2O, 700 mg of amino acid mixtures without tryptophan (Clontech), and 20 mg of L-Tryptophan were added per liter of medium. A vitamin mixture (100×, Sigma) and glucose at final concentration of 2% were also added.
(§4) 1 μl peptide solutions (ranging from 5000 μg/ml to 78 μg/ml in serial dilution) was prepared and mixed with 99 μl inoculum (5×10^5 CFU/ml) in polypropylene 96-well plate. The turbidity at OD 600 nm was measured by ELISA plate reader (Thermo Max, Molecular Devices, Sunnyvale, Calif.). The absorbance of culture medium and inoculum suspension without peptides were used as the negative and positive control, respectively. The minimum inhibitory concentration (MIC) value is the lowest concentration of peptide at which there is no obvious growth (equal or more than 90%). […] All peptides were tested in triplicate.

[2] = test system: Escherichia coli strain (ATCC 25922); experiment: microbe, parasite or virus in culture; settings: ATCC25922, E. coli ATCC 25922, LYM control, read-out: Minimum inhibitory concentration (MIC)
Protocol: as §1, §2, §3, §4

human fibroblast (HFW) = experiment: MTT cytotoxicity to normal fibroblasts; settings: MTT assay
Protocol: Human lung cancer line PC9 and A549, oral squamous cell carcinoma cell line OECM-1 were cultured in RPMI medium supplemented with 10% fetal bovine serum and antibiotic. Human tongue carcinoma cell line SAS, oral cancer cell line C9, and human diploid fibroblast (HFW) were cultured in DMEM medium supplemented with 10% fetal bovine serum and antibiotic. Cells were cultured in a humidified incubator containing 5% CO2 at 37° C.
The MTT assay was employed to determine the in vitro cytotoxicity. All cancer cell lines were seeded in 96-well plate with concentration 5000 cells/100 μl/well and incubated for 24 hours. HFW was seeded with 8000 cells/100 μl/well.
After medium was removed, 100 μl fresh medium containing peptide (ranging from 50 μM to 3.13 μM, HFW was treated with 75 μM and 100 μM peptide additionally) was added to the wells. Following 3, 12 or 24 hour incubation, fresh medium with MTT (0.5 mg/ml) was replaced and incubated for 3 hours. After medium/MTT was removed, DMSO was added at 100 μl for dissolving the formazan crystal. Cell survival rate was calculated by measuring the absorbance at 540 nm using Multi-labeled Microplate Reader (VICTOR3). For cancer cells, medium mixed with H2O2 (aq) represented positive control (all cells died) while medium only represented negative control. For normal cells, medium only represented positive control (all cells lived) while medium mixed with H2O2 (aq) represented negative control (all cells died).
The cytotoxicities of S1 and its analogs on human lung cancer cells (i.e, PC9, PC9-G and A549), human oral cancer cells (i.e, C9, OECM-1, and SAS), and human fibroblast (HFW) were evaluated by MTT assay for 3, 12 and 24 hours.

MIC ([1]; Staphylococcus aureus, ATCC25923, S. aureus ATCC 25923, LYM control, read-out: Minimum inhibitory concentration (MIC)) [µg/mL]	MIC [2] [µg/mL]	Compound	degrees of cytotoxicities to HFW (rank order) (human fibroblast (HFW))	Minimum inhibitory concentration (MIC) ([1]; ATCC 25923, 8 h) [µg/mL]
3.1 (≈ 8.87 µM)	25 (≈ 71.5 µM)	CC1(C)S[C@@H]2[C@H](NC(=O)[C@H](N)c3ccccc3)C(=O)N2[C@H]1C(=O)O [AP, Ampicillin, reference compound]		
		CC(=O)N[C@@H](CCCCN)C(=O)N[C@@H](CCCCN)C(=O)N[C@@H](CCCCN)C(=O)N[C@@H](CCCCN)C(=O)N[C@@H](CCCCN)C(=O)N[C@@H](CCCCN)C(=O)N[C@@H](Cc1ccc2ccccc2c1)C(=O)N[C@@H](Cc1ccc2ccccc2c1)C(=O)N[C@@H](CCCCN)C(=O)N[C@@H](CCCCN)C(=O)N[C@@H](Cc1c[nH]c2ccccc12)C(=O)N[C@@H](CCCNC(=N)N)C(=O)N[C@@H](CCCCN)C(=O)N[C@@H](Cc1c[nH]c2ccccc12)C(=O)N[C@@H](CC(C)C)C(=O)N[C@@H](C)C(=O)N[C@@H](CCCCN)C(=O)N[C@@H](CCCCN)C(N)=O [K6-Nal2-S1, Ac-KKKKKK-Nal-Nal-KKWRKWLAKK-NH2] (Ac-KKKKKK[2Nal][2Nal]KKWRKWLAKK-NH2)	S1 peptide<K4R2-Nal2-S1 peptide<K6-Nal2-S1 peptide<Nal2-S1 peptide	
		CC(=O)N[C@@H](Cc1ccc2ccccc2c1)C(=O)N[C@@H](Cc1ccc2ccccc2c1)C(=O)N[C@@H](CCCCN)C(=O)N[C@@H](CCCCN)C(=O)N[C@@H](Cc1c[nH]c2ccccc12)C(=O)N[C@@H](CCCNC(=N)N)C(=O)N[C@@H](CCCCN)C(=O)N[C@@H](Cc1c[nH]c2ccccc12)C(=O)N[C@@H](CC(C)C)C(=O)N[C@@H](C)C(=O)N[C@@H](CCCCN)C(=O)N[C@@H](CCCCN)C(N)=O [Nal2-S1, Ac-Nal-Nal-KKWRKWLAKK-NH2] (Ac-[2Nal][2Nal]KKWRKWLAKK-NH2)	S1 peptide<K4R2-Nal2-S1 peptide<K6-Nal2-S1 peptide<Nal2-S1 peptide	3.1 (≈ 1.72 µM)
		Ac-KKWRKWLAKK-NH2 [S1, Ac-KKWRKWLAKK-NH2, reference compound]	S1 peptide<K4R2-Nal2-S1 peptide<K6-Nal2-S1 peptide<Nal2-S1 peptide	
